Assays:
[1] = system: finishing barrows; assay: Finishing pig carcass measures and fabrication (Example IV); type: in vivo; details: 10 days
Method: (§1) Seven days prior to the beginning of the experiment, 10 finishing barrows (initial BW 111.9±1.6 kg) were assigned to individual pens located at the East Finisher facility of the Kansas State University Swine Teaching and Research Center (Manhattan, Kans.). Each pen was 7.4 m^2 with a slatted floor, contained a nipple waterer and an individual dry feeder that allowed ad libitum access to food and water. Barrows were randomly assigned to 1 of 2 NR treatments, 0 or 30 mg/kg daily of NR mixed in Karo® syrup and administered by oral gavage. Barrows were administered their assigned treatment for 10 days, after which they were harvested under USDA inspection. Twenty-four hours after harvest, carcass measurements were taken by trained personnel, carcasses were fabricated into the 5 major wholesale cuts, and whole-boneless loins were vacuum packaged and aged for 10 days. Loin were cut into 3 chops with chop 1 being used for day-0 metmyoglobin reducing ability (MRA) analysis, chop 2 being used for day-4 MRA and oxygen consumption rate (OCR) analyses, and chop 3 for 8-day objective/subjective color evaluation and MRA and OCR analyses.

[2] = system: finishing barrows; assay: Loin chop color stability, 8-day simulated retail display (Example IV); type: in vivo, pig; details: NR 30 mg/kg, 10 days
Method: as §1, with “analyses. There were no Treatment×Day interactions for all objective and subjective color measurements (P>0.77). Day of display affected all measures consistent with the discoloration of meat (P<0.02), except L* (lightness; 0=black and 100=white) value which was not affected (P=0.14; Table 5).” for “analyses.”

[3] = 8-day display, treatment effect not significant (P>0.19)

## NC(=O)c1ccc[n+]([C@@H]2O[C@H](CO)[C@@H](O)[C@H]2O)c1 [Nicotinamide riboside, nicotinamide riboside]
[1]; NR 30 mg/kg daily oral gavage
  1st rib subcutaneous fat: 1.76 cm
  10th rib subcutaneous fat: 0.95 cm
  Carcass fabrication, Belly: 7.93 kg
  Carcass fabrication, Boneless loin: 10.39 kg
  Carcass fabrication, Boston butt: 3.22 kg
  Carcass fabrication, Ham: 9.63 kg
  Carcass fabrication, Picnic shoulder: 4.42 kg
  Carcass weight: 97.4 kg
  Last lumbar subcutaneous fat: 0.83 cm
  Last rib subcutaneous fat: 0.91 cm
  Loin eye area: 7.3 in²
[1]; NR 30 mg/kg, 1 = none and 10 = abundant
  Marbling (National Pork Producers Council marbling score): 2.4
[1]; NR 30 mg/kg, 1 = pale pinkish gray to white, 6 = dark purplish red
  Color (National Pork Producers Council color score): 3.4
[2]; [3]
  Metmyoglobin reducing ability (MRA) vs control: greater
  Oxygen consumption rate (OCR) vs control: greater
[2]; display day 0
  Loin chop L* (0 = black and 100 = white): 64.4
  Loin chop a* (−60 = green and 60 = red): 19.7
[2]; display day 1
  Loin chop L* (0 = black and 100 = white): 65.2
  Loin chop a* (−60 = green and 60 = red): 18.8
[2]; display day 2
  Loin chop L* (0 = black and 100 = white): 63.7
  Loin chop a* (−60 = green and 60 = red): 18.6
[2]; display day 3
  Loin chop L* (0 = black and 100 = white): 63.4
  Loin chop a* (−60 = green and 60 = red): 17.8
[2]; display day 4
  Loin chop L* (0 = black and 100 = white): 63.1
  Loin chop a* (−60 = green and 60 = red): 17.3
[2]; display day 5
  Loin chop L* (0 = black and 100 = white): 62.9
  Loin chop a* (−60 = green and 60 = red): 16.3
[2]; display day 6
  Loin chop L* (0 = black and 100 = white): 62.7
  Loin chop a* (−60 = green and 60 = red): 15.6
[2]; display day 7
  Loin chop L* (0 = black and 100 = white): 62.8
  Loin chop a* (−60 = green and 60 = red): 15.1
[2]; display day 8
  Loin chop L* (0 = black and 100 = white): 62.8
  Loin chop a* (−60 = green and 60 = red): 14.7
[2]; entire 8-day display period
  Trained panelists loin chop discoloration vs control: less discoloration
[2]; over the 8-day display period
  Loin chop surface metmyoglobin vs control: less surface metmyoglobin formation
  Loin chop surface oxymyoglobin vs control: greater surface oxymyoglobin

— patent US11571413B2, “Nicotinamide riboside treatments of domesticated meat animals” (Kansas State University Research Foundation, priority 2017, dated 2023)
